# Tests used:
# [1] = system: rabbit serum obtained by immunizing a rabbit with the SARS-CoV strain Frankfurt 1; format: binding; set-up: Binding of a rabbit serum to linear peptides / Binding of a rabbit serum to looped peptides / Rabbit serum linear peptides / Rabbit serum looped peptides / Binding of a rabbit serum to linear peptides of protein N of SARS-CoV Urbani (Rabbit serum linear peptides) / Binding of a rabbit serum to looped/cyclic peptides of protein N of SARS-CoV Urbani (Rabbit serum looped peptides): unit not given here
# [2] = system: control sera (pooled serum of ten healthy LUMC hospital workers; commercial negative donor pooled serum from the Dutch bloodbank); format: binding, human; set-up: Binding of Control serum LUMC to linear peptides / Binding of Control serum Blood-bank to linear peptides / Binding of Control serum LUMC to looped peptides / Binding of Control Serum Blood-Bank to Looped peptides / Binding of Control serum LUMC to linear peptides of the protein M of SARS-CoV Urbani / Binding of Control serum Blood-bank to linear peptides of the protein M of SARS-CoV Urbani / Binding of Control serum LUMC to looped peptides of the protein M of SARS-CoV Urbani / Binding of Control Serum Blood-Bank to Looped peptides of the protein M of SARS-CoV Urbani: unit not given here
# [3] = system: antibodies in sera from SARS patients (sera 1a, 1b, 2, 6, 37, 62, London, SARS-yellow, SARS-green); format: binding, human; set-up: Binding of serum 6 to linear peptides of protein X1 of SARS-CoV Urbani / Binding of serum 37 to linear peptides of protein X1 of SARS-CoV Urbani / Binding of serum 6 to looped/cyclic peptide (PEPSCAN-ELISA) / Binding of serum 37 to looped/cyclic peptide (PEPSCAN-ELISA) / Binding of serum 37 to looped/cyclic peptides of protein X1 of SARS-CoV Urbani / Binding of serum 6 to linear peptides of protein X2 / Binding of serum 37 to linear peptides of protein X2 / Binding of serum 37 to looped/cyclic peptides of protein X2 of SARS-CoV Urbani / Binding of serum 6 to linear peptides of protein M of SARS-CoV Urbani / Binding of serum 37 to linear peptides of protein M of SARS-CoV Urbani / Binding of serum 6 to looped/cyclic peptides of protein M of SARS-CoV Urbani / Binding of serum 37 to looped/cyclic peptides of protein M of SARS-CoV Urbani / Binding of serum 6 to linear peptides of protein X3 of SARS-CoV Urbani / Binding of serum 37 to linear peptides of protein X3 of SARS-CoV Urbani / Binding of serum 37 to looped/cyclic peptides of protein X3 of SARS-CoV Urbani / Binding of serum 6 to linear peptides of protein X4 of SARS-CoV Urbani / Binding of serum 37 to linear peptides of protein X4 of SARS-CoV Urbani / Binding of serum 37 to looped/cyclic peptides of protein X4 of SARS-CoV Urbani / Binding of serum 6 to linear peptides of protein X5 of SARS-CoV Urbani / Binding of serum 37 to linear peptides of protein X5 of SARS-CoV Urbani / Binding of serum 37 to looped/cyclic peptides of protein X5 of SARS-CoV Urbani / Binding of serum 6 to linear peptides of protein N of SARS-CoV Urbani / Binding of serum 37 to linear peptides of protein N of SARS-CoV Urbani / Binding of serum 6 to linear peptide (PEPSCAN-ELISA) / Binding of serum 1a to looped/cyclic peptides of protein N of SARS-CoV Urbani / Binding of serum 1b to looped/cyclic peptides of protein N of SARS-CoV Urbani / Binding of serum 2 to looped/cyclic peptides of protein N of SARS-CoV Urbani / Binding of serum 6 to looped/cyclic peptides of protein N of SARS-CoV Urbani / Binding of serum 37 to looped/cyclic peptides of protein N of SARS-CoV Urbani / Binding of serum 62 to looped/cyclic peptides of protein N of SARS-CoV Urbani / Binding of serum London to looped/cyclic peptides of protein N of SARS-CoV Urbani / Binding of serum SARS-green to looped/cyclic peptides of protein N of SARS-CoV Urbani: unit not given here
sequence,measurement,setting,value
RLFARTRSMWSFNPE,Rabbit serum linear peptides,[1],0.4
same,Rabbit serum looped peptides,[1],0.0
same,Binding of Control Serum Blood-Bank to Looped peptides of the protein M of SARS-CoV Urbani,[2],0.7
same,Binding of Control serum Blood-bank to linear peptides of the protein M of SARS-CoV Urbani,[2],0.8
same,Binding of Control serum LUMC to linear peptides of the protein M of SARS-CoV Urbani,[2],0.5
same,Binding of Control serum LUMC to looped peptides of the protein M of SARS-CoV Urbani,[2],0.5
same,Binding of serum 1a to linear peptides of protein M of SARS-CoV Urbani,[3],0.9
same,Binding of serum 1a to looped/cyclic peptides of protein M of SARS-CoV Urbani,[3],0.7
same,Binding of serum 1b to linear peptides of protein M of SARS-CoV Urbani,[3],0.9
same,Binding of serum 1b to looped/cyclic peptides of protein M of SARS-CoV Urbani,[3],0.8
same,Binding of serum 2 to linear peptides of protein M of SARS-CoV Urbani,[3],0.6
same,Binding of serum 2 to looped/cyclic peptides of protein M of SARS-CoV Urbani,[3],0.5
same,Binding of serum 6 to linear peptides of protein M of SARS-CoV Urbani,[3],0.4
same,Binding of serum 6 to looped/cyclic peptides of protein M of SARS-CoV Urbani,[3],0.8
same,Binding of serum 37 to linear peptides of protein M of SARS-CoV Urbani,[3],1.0
same,Binding of serum 37 to looped/cyclic peptides of protein M of SARS-CoV Urbani,[3],0.6
same,Binding of serum 62 to linear peptides of protein M of SARS-CoV Urbani,[3],0.9
same,Binding of serum 62 to looped/cyclic peptides of protein M of SARS-CoV Urbani,[3],0.6
same,Binding of serum London to linear peptides of protein M of SARS-CoV Urbani,[3],0.4
same,Binding of serum London to looped/cyclic peptides of protein M of SARS-CoV Urbani,[3],0.2
same,Binding of serum SARS-green to linear peptides of protein M of SARS-CoV Urbani,[3],0.5
same,Binding of serum SARS-green to looped/cyclic peptides of protein M of SARS-CoV Urbani,[3],0.4
same,Binding of serum SARS-yellow to linear peptides of protein M of SARS-CoV Urbani,[3],0.1
same,Binding of serum SARS-yellow to looped/cyclic peptides of protein M of SARS-CoV Urbani,[3],0.4
RMCKYTQSTALQELL,Binding of a rabbit serum to linear peptides,[1],0.4
same,Binding of a rabbit serum to looped peptides,[1],0.4
same,Binding of Control Serum Blood-Bank to Looped peptides,[2],0.7
same,Binding of Control serum Blood-bank to linear peptides,[2],0.8
same,Binding of Control serum LUMC to linear peptides,[2],0.7
same,Binding of Control serum LUMC to looped peptides,[2],0.6
same,Binding of serum 1a to linear peptides of protein X2,[3],0.8
same,Binding of serum 1a to looped/cyclic peptides of protein X2 of SARS-CoV Urbani,[3],0.7
same,Binding of serum 1b to linear peptides of protein X2,[3],0.7
same,Binding of serum 1b to looped/cyclic peptides of protein X2 of SARS-CoV Urbani,[3],0.7
same,Binding of serum 2 to linear peptides of protein X2,[3],0.5
same,Binding of serum 2 to looped/cyclic peptides of protein X2 of SARS-CoV Urbani,[3],0.4
same,Binding of serum 6 to linear peptides of protein X2,[3],0.4
same,Binding of serum 6 to looped/cyclic peptides of protein X2 of SARS-CoV Urbani,[3],0.3
same,Binding of serum 37 to linear peptides of protein X2,[3],0.7
same,Binding of serum 37 to looped/cyclic peptides of protein X2 of SARS-CoV Urbani,[3],0.4
same,Binding of serum 62 to linear peptides of protein X2,[3],0.8
same,Binding of serum 62 to looped/cyclic peptides of protein X2 of SARS-CoV Urbani,[3],0.7
same,Binding of serum London to linear peptides of protein X2,[3],0.5
same,Binding of serum London to looped/cyclic peptides of protein X2 of SARS-CoV Urbani,[3],0.2
same,Binding of serum SARS-green to linear peptides of protein X2,[3],0.6
same,Binding of serum SARS-green to looped/cyclic peptides of protein X2 of SARS-CoV Urbani,[3],0.6
same,Binding of serum SARS-yellow to linear peptides of protein X2,[3],0.6
same,Binding of serum SARS-yellow to looped/cyclic peptides of protein X2 of SARS-CoV Urbani,[3],0.3
RPLMESELVIGAVII,Rabbit serum linear peptides,[1],0.4
same,Rabbit serum looped peptides,[1],0.2
same,Binding of Control Serum Blood-Bank to Looped peptides of the protein M of SARS-CoV Urbani,[2],0.8
same,Binding of Control serum Blood-bank to linear peptides of the protein M of SARS-CoV Urbani,[2],0.6
same,Binding of Control serum LUMC to linear peptides of the protein M of SARS-CoV Urbani,[2],0.5
same,Binding of Control serum LUMC to looped peptides of the protein M of SARS-CoV Urbani,[2],0.8
same,Binding of serum 1a to linear peptides of protein M of SARS-CoV Urbani,[3],0.8
same,Binding of serum 1b to linear peptides of protein M of SARS-CoV Urbani,[3],0.6
same,Binding of serum 2 to linear peptides of protein M of SARS-CoV Urbani,[3],0.7
same,Binding of serum 6 to linear peptides of protein M of SARS-CoV Urbani,[3],0.3
same,Binding of serum 37 to linear peptides of protein M of SARS-CoV Urbani,[3],0.6
same,Binding of serum 62 to linear peptides of protein M of SARS-CoV Urbani,[3],0.9
same,Binding of serum London to linear peptides of protein M of SARS-CoV Urbani,[3],0.4
same,Binding of serum SARS-green to linear peptides of protein M of SARS-CoV Urbani,[3],0.3
same,Binding of serum SARS-yellow to linear peptides of protein M of SARS-CoV Urbani,[3],0.1
same,"Recognition of the peptide by sera of SARS-CoV infected individuals, and form (linear, looped/cyclic) in which it is recognized",[3],recognized in looped/cyclic form

# — patent US20070128217A1 (priority 2003, published 2007)
